Columns and labels:
[1] = system: Parkinson's disease; settings: United States and Europe; cited from earlier work
[2] = biological target: T1, MAO-A (Rattus norvegicus, UniProt P21396); assay: In vitro inhibition of monoamine oxidase A (oxygen electrode, rat liver mitochondria, substrate serotonin); format: biochemical; settings: rat liver mitochondria, 37° C., preincubated, substrate serotonin (5-HT); read-out: IC50 MAO-A
T1 construct: mitochondria prepared from the liver of rats; from tissue; host or cells: rat liver mitochondria
T1 sequence (P21396 1-526): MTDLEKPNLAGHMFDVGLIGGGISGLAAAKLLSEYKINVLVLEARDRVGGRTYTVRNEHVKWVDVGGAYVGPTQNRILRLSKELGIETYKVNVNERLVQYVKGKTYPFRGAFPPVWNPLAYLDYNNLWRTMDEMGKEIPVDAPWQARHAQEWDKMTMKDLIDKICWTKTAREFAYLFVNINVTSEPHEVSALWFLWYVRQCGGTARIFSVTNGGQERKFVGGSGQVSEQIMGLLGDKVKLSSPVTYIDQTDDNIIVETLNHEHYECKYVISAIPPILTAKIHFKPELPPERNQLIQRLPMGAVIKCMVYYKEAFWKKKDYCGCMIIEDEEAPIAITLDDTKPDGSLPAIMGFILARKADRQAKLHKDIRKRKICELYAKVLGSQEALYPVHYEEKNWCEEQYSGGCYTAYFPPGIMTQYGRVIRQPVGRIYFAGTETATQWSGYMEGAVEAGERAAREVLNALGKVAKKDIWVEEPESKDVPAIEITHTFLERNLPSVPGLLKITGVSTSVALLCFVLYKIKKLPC
Experimental: (§1) The MAO-inhibitory activity of the compounds of the present invention was determined according to an MAO-inhibitory activity determining method using the oxygen electrode disclosed in K. F. Tipton et al., Biochem. J., 1968,108, pp. 95-99.
(§2) A potassium phosphate buffer solution of mitochondria prepared from the liver of rats was preincubated at 37° C. with or without a compound of the present invention and then a substrate was added to the mixture to thus initiate the reaction at that temperature while the dissolved oxygen-consuming reaction due to MAO activity in the reaction solution was monitored by the oxygen electrode. In this respect, the substrates used were serotonin (5-HT) for the MAO-A activity determination and benzylamine (BA) for the MAO-B activity determination. The MAO-inhibitory activity was evaluated in terms of an IC5.sbsb.0 value which is the concentration of a compound tested required for reducing the rate of oxygen-consuming reaction performed in the presence of the compound to 50% of that of the reaction performed in the absence of the compound.

[3] = biological target: T2, MAO-B (Rattus norvegicus, UniProt P19643); assay: In vitro inhibition of monoamine oxidase B (oxygen electrode, rat liver mitochondria, substrate benzylamine); format: biochemical; settings: for IC50: rat liver mitochondria, 37° C., preincubated, substrate benzylamine (BA), read-out: IC50 MAO-B; for MAO-A/MAO-B: ratio of IC50 values MAO-A/MAO-B
T2 construct: mitochondria prepared from the liver of rats; from tissue; host or cells: rat liver mitochondria
T2 sequence (P19643 1-520): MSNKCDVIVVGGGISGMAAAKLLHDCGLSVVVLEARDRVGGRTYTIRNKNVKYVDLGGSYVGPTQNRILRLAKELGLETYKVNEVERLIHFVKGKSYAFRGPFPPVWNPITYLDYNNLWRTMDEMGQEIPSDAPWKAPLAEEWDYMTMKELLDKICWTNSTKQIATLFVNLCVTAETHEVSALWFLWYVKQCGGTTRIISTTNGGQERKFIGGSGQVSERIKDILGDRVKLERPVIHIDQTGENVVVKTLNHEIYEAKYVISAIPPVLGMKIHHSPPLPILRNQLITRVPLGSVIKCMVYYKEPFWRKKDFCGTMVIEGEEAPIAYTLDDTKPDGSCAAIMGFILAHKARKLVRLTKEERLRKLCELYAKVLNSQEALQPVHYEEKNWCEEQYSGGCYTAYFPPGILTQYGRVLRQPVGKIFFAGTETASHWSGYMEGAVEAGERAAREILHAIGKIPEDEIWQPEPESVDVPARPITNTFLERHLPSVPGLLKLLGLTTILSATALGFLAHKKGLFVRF
Experimental: as §1, §2

Compound | clinical effectiveness in Parkinson's disease (in words) [1] | IC50 [2] | IC50 [3] | MAO-A/MAO-B [3]
C#CCN(C)C(C)Cc1ccccc1 (racemic) [d,l-Deprenil] | effectiveness of this compound has clinically been proved | – | – | –
CNc1nc(-c2ccc(OCCCn3ccnc3)cc2)no1 [Example 32, 3-[4-[3-(1H-imidazol-1-yl)propoxy]phenyl]-5-methyl-amino-1,2,4-oxadiazole] | – | 110 µM | 1.2 µM | 92
CNc1nc(-c2ccc(OCc3ccccc3)cc2)no1 [Example 33, 3-(4-benzyloxyphenyl)-5-methylamino-1,2,4-oxadiazole] | – | 100 µM | 7 µM | 14

Reference: patent publication US5356916A, “1,2,4-oxadiazole derivatives having monoamine oxidase B enzyme-inhibitory activity” (Wakamoto Pharmaceutical Co., Ltd., priority 1991, dated 1994)
